Assay results from PubChem BioAssay AID256 (DTP/NCI, 2004).
Values joined by “and” are separate entries in the source; they are usually repeats but may differ in a detail not shown here. Equal values may be shown once. Inconclusive results and toxic doses are left out.

System: CD2F1 mice, L1210 leukemia ip, survival T/C
Test: NCI In Vivo Anticancer Drug Screen. Data for tumor model L1210 Leukemia (intraperitoneal) in CD2F1 (CDF1) mice
Conditions: higher = longer survival
Outline: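 Activity against a transplanted murine tumor was judged by comparing the compound group with a vehicle group. The outcome in the treated animals was divided by that in the controls.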

[1] = endpoint: median survival time, dose: 25.0 mg/kg/injection, schedule: Q01DX009 (ip), vehicle: saline with Tween-80
[2] = endpoint: median survival time, dose: 50.0 mg/kg/injection, schedule: Q01DX009 (ip), vehicle: saline with Tween-80
[3] = endpoint: median survival time, dose: 100.0 mg/kg/injection, schedule: Q01DX009 (ip), vehicle: saline with Tween-80
[4] = endpoint: median survival time, dose: 200.0 mg/kg/injection, schedule: Q01DX009 (ip), vehicle: saline with Tween-80
[5] = endpoint: median survival time, dose: 400.0 mg/kg/injection, schedule: Q01DX009 (ip), vehicle: saline with Tween-80
[6] = endpoint: mean survival time, dose: 100.0 mg/kg/injection, schedule: Q01DX009 (ip), vehicle: saline with Tween-80
[7] = endpoint: mean survival time, dose: 200.0 mg/kg/injection, schedule: Q01DX009 (ip), vehicle: saline with Tween-80
[8] = endpoint: mean survival time, dose: 400.0 mg/kg/injection, schedule: Q01DX009 (ip), vehicle: saline with Tween-80
[9] = endpoint: mean survival time, dose: 100.0 mg/kg/injection, schedule: Q04DX003 (ip), vehicle: saline with Tween-80
[10] = endpoint: mean survival time, dose: 200.0 mg/kg/injection, schedule: Q04DX003 (ip), vehicle: saline with Tween-80
[11] = endpoint: mean survival time, dose: 400.0 mg/kg/injection, schedule: Q04DX003 (ip), vehicle: saline with Tween-80

N=c1c(C(=O)OCc2ccccc2)ncc(CCl)n1O
T/C [1]: 100 % of control
T/C [2]: 101 % of control and 102 % of control
T/C [3]: 97 % of control and 109 % of control
T/C [4]: 93 % of control and 97 % of control
T/C [5]: 99 % of control and 100 % of control

COC(=O)C(N)Cc1ccc(O)c(O)c1 (stereo not drawn)
T/C (endpoint: mean survival time, dose: 12.5 mg/kg/injection, schedule: Q01DX009 (ip), vehicle: saline): 101 % of control and 107 % of control
T/C (endpoint: mean survival time, dose: 25.0 mg/kg/injection, schedule: Q01DX009 (ip), vehicle: saline): 101 % of control and 107 % of control
T/C (endpoint: mean survival time, dose: 50.0 mg/kg/injection, schedule: Q01DX009 (ip), vehicle: saline): 95 % of control and 103 % of control
T/C (endpoint: mean survival time, dose: 100.0 mg/kg/injection, schedule: Q01DX009 (ip), vehicle: saline): 94 % of control and 103 % of control and 107 % of control
T/C (endpoint: mean survival time, dose: 200.0 mg/kg/injection, schedule: Q01DX009 (ip), vehicle: saline): 113 % of control and 101 % of control and 110 % of control
T/C (endpoint: mean survival time, dose: 400.0 mg/kg/injection, schedule: Q01DX009 (ip), vehicle: saline): 117 % of control and 110 % of control (2×)
T/C (endpoint: mean survival time, dose: 800.0 mg/kg/injection, schedule: Q01DX009 (ip), vehicle: saline): 116 % of control and 123 % of control

Nc1ccccc1SC(CC(=O)c1ccccc1)c1ccc2c(c1)OCO2 (stereo not drawn)
T/C [6]: 95 % of control
T/C [7]: 93 % of control
T/C [8]: 100 % of control

COc1cc2c(cc1OC)C1CC(O)C3CCCCC3N1CC2 (stereo not drawn)
T/C [9]: 93 % of control
T/C [10]: 93 % of control

O=C1C2=C(C(=O)C3=C1C1CCC3C1)C1CCC2C1
T/C (endpoint: mean survival time, dose: 25.0 mg/kg/injection, schedule: Q04DX002 (ip), vehicle: saline with Tween-80): 105 % of control
T/C (endpoint: mean survival time, dose: 50.0 mg/kg/injection, schedule: Q04DX002 (ip), vehicle: saline with Tween-80): 101 % of control
T/C (endpoint: mean survival time, dose: 100.0 mg/kg/injection, schedule: Q04DX002 (ip), vehicle: saline with Tween-80): 108 % of control

Nc1nc(N)c2[nH]c(-c3ccccc3)nc2n1
T/C (endpoint: mean survival time, dose: 6.25 mg/kg/injection, schedule: Q01DX005 (ip), vehicle: saline with Tween-80): 100 % of control
T/C (endpoint: mean survival time, dose: 12.5 mg/kg/injection, schedule: Q01DX005 (ip), vehicle: saline with Tween-80): 97 % of control
T/C (endpoint: mean survival time, dose: 25.0 mg/kg/injection, schedule: Q01DX005 (ip), vehicle: saline with Tween-80): 99 % of control
T/C (endpoint: mean survival time, dose: 50.0 mg/kg/injection, schedule: Q01DX005 (ip), vehicle: saline with Tween-80): 99 % of control

CN(C)C1C(=O)C(C(=O)NP(=O)(NCCCO)N(CCCl)CCCl)=C(O)C2(O)C(=O)C3=C(O)c4c(O)cccc4C(C)(O)C3CC12 (stereo not drawn)
T/C (endpoint: mean survival time, dose: 1.56 mg/kg/injection, schedule: Q01DX001 (ip), vehicle: saline with Tween-80): 102 % of control
T/C (endpoint: mean survival time, dose: 3.12 mg/kg/injection, schedule: Q01DX001 (ip), vehicle: saline with Tween-80): 96 % of control
T/C (endpoint: mean survival time, dose: 15.62 mg/kg/injection, schedule: Q01DX001 (ip), vehicle: saline with Tween-80): 104 % of control
T/C (endpoint: mean survival time, dose: 31.25 mg/kg/injection, schedule: Q01DX001 (ip), vehicle: saline with Tween-80): 100 % of control
T/C (endpoint: mean survival time, dose: 62.5 mg/kg/injection, schedule: Q01DX001 (ip), vehicle: saline with Tween-80): 100 % of control and 106 % of control
T/C (endpoint: mean survival time, dose: 125.0 mg/kg/injection, schedule: Q01DX001 (ip), vehicle: saline with Tween-80): 124 % of control and 100 % of control
T/C (endpoint: mean survival time, dose: 250.0 mg/kg/injection, schedule: Q01DX001 (ip), vehicle: saline with Tween-80): 122 % of control and 110 % of control
T/C (endpoint: mean survival time, dose: 500.0 mg/kg/injection, schedule: Q01DX001 (ip), vehicle: saline with Tween-80): 156 % of control
T/C [1]: 110 % of control
T/C [2]: 118 % of control
T/C [3]: 157 % of control
T/C [4]: 201 % of control and 202 % of control
T/C [5]: 116 % of control

O=S(=O)(Cc1ccccc1)Cc1ccccc1
T/C [6]: 101 % of control
T/C [9]: 103 % of control
T/C [7]: 98 % of control
T/C [10]: 103 % of control
T/C [8]: 96 % of control
T/C [11]: 102 % of control

CCOC(=O)C(C(=O)OCC)C(=O)C(C)C
T/C [9]: 93 % of control
T/C [10]: 97 % of control
T/C [11]: 95 % of control

Nc1ncnc2nc(-c3cccc(CNC(=O)c4ccccc4S(=O)(=O)F)c3)[nH]c12
T/C (endpoint: mean survival time, dose: 100.0 mg/kg/injection, schedule: Q01DX001 (ip), vehicle: saline with Tween-80): 87 % of control
T/C (endpoint: mean survival time, dose: 400.0 mg/kg/injection, schedule: Q01DX001 (ip), vehicle: saline with Tween-80): 87 % of control
